Test results as given in ChEMBL document CHEMBL1124182, “Design, synthesis, and properties of (4S)-7-(4-amino-2-substituted-pyrrolidin-1-yl)quinolone-3-carboxylic acids” (J Med Chem, 1988).
Values after ≈ are worked out from the molar mass of the structure shown.

tested on: not listed separately; assay: Partition coefficient (logP); assay type: physicochemical; details: octanol/water

| Structure (SMILES) | logP |
| --- | --- |
| NC1CCN(c2nc3c(cc2F)c(=O)c(C(=O)O)cn3-c2ccc(F)cc2F)C1 (centres undefined) [TOSUFLOXACIN] | -0.46 |
| C[C@H]1C[C@H](N)CN1c1cc2c(cc1F)c(=O)c(C(=O)O)cn2-c1ccc(F)cc1F | 0.085 |

tested on: Acinetobacter; assay: In vitro Minimum inhibitory concentration against Acinetobacter CMX 669; assay type: functional; details: Acinetobacter; read-out: MIC

| Structure (SMILES) | MIC |
| --- | --- |
| O=C(O)c1cn(-c2ccc(F)cc2)c2cc(N3CCC[C@H]3CO)c(F)cc2c1=O | > 100 µg/mL |
| NC1CCN(c2nc3c(cc2F)c(=O)c(C(=O)O)cn3-c2ccc(F)cc2F)C1 (centres undefined) [TOSUFLOXACIN] | 0.05 µg/mL (≈ 0.124 µM) |
| C[C@H]1C[C@H](N)CN1c1cc2c(cc1F)c(=O)c(C(=O)O)cn2-c1ccc(F)cc1F | 0.1 µg/mL (≈ 0.24 µM) |

tested on: Escherichia coli; assay: In vitro Minimum inhibitory concentration against Escherichia coli Juhl; assay type: functional; details: not given

| Structure (SMILES) | MIC |
| --- | --- |
| O=C(O)c1cn(-c2ccc(F)cc2)c2cc(N3CCC[C@H]3CO)c(F)cc2c1=O | 50 µg/mL (≈ 125 µM) |
| NC1CCN(c2nc3c(cc2F)c(=O)c(C(=O)O)cn3-c2ccc(F)cc2F)C1 (centres undefined) [TOSUFLOXACIN] | 0.02 µg/mL (≈ 0.0495 µM) |
| C[C@H]1C[C@H](N)CN1c1cc2c(cc1F)c(=O)c(C(=O)O)cn2-c1ccc(F)cc1F | 0.05 µg/mL (≈ 0.12 µM) |

tested on: Escherichia coli; assay: Supercoiling inhibition assay using purified DNA gyrase isolated from Escherichia coli H560; assay type: functional; details: read-out: I50

| Structure (SMILES) | IC50 |
| --- | --- |
| NC1CCN(c2nc3c(cc2F)c(=O)c(C(=O)O)cn3-c2ccc(F)cc2F)C1 (centres undefined) [TOSUFLOXACIN] | 0.4 µg/mL (≈ 0.989 µM) |
| C[C@H]1C[C@H](N)CN1c1cc2c(cc1F)c(=O)c(C(=O)O)cn2-c1ccc(F)cc1F | 0.9 µg/mL (≈ 2.16 µM) |

tested on: Klebsiella pneumoniae; assay: In vitro Minimum inhibitory concentration against Klebsiella pneumoniae 8045; assay type: functional; details: not given

| Structure (SMILES) | MIC |
| --- | --- |
| O=C(O)c1cn(-c2ccc(F)cc2)c2cc(N3CCC[C@H]3CO)c(F)cc2c1=O | 25 µg/mL (≈ 62.4 µM) |
| NC1CCN(c2nc3c(cc2F)c(=O)c(C(=O)O)cn3-c2ccc(F)cc2F)C1 (centres undefined) [TOSUFLOXACIN] | 0.01 µg/mL (≈ 0.0247 µM) |
| C[C@H]1C[C@H](N)CN1c1cc2c(cc1F)c(=O)c(C(=O)O)cn2-c1ccc(F)cc1F | 0.02 µg/mL (≈ 0.0479 µM) |

tested on: not listed separately; assay: Blood level was evaluated by a disk agar diffusion assay at 3.0 hh when administered at a peroral dose of 100 mg/kg; assay type: ADME, organism-based; design: dose 100 mg/kg, route oral; details: mouse, po, read-out: Blood level

| Structure (SMILES) | concentration at 3 h |
| --- | --- |
| NC1CCN(c2nc3c(cc2F)c(=O)c(C(=O)O)cn3-c2ccc(F)cc2F)C1 (centres undefined) [TOSUFLOXACIN] | 1700 ng/mL |

tested on: not listed separately; assay: Blood level was evaluated by a disk agar diffusion assay at 3.0 hh when administered at a peroral dose of 25 mg/kg; assay type: ADME, organism-based; design: dose 25 mg/kg, route oral; details: mouse, po, read-out: Blood level

| Structure (SMILES) | concentration at 3 h |
| --- | --- |
| C[C@H]1C[C@H](N)CN1c1cc2c(cc1F)c(=O)c(C(=O)O)cn2-c1ccc(F)cc1F | 1100 ng/mL |

tested on: Mus musculus; assay: In vivo efficacy against Escherichia coli Juhl, in mouse protection tests when administered perorally (po); assay type: functional; details: not given

| Structure (SMILES) | ED50 |
| --- | --- |
| C[C@H]1C[C@H](N)CN1c1cc2c(cc1F)c(=O)c(C(=O)O)cn2-c1ccc(F)cc1F | 3.6 mg/kg |

tested on: Mus musculus; assay: In vivo efficacy against Escherichia coli Juhl, in mouse protection tests when administered subcutaneously (sc); assay type: functional; details: not given

| Structure (SMILES) | ED50 |
| --- | --- |
| C[C@H]1C[C@H](N)CN1c1cc2c(cc1F)c(=O)c(C(=O)O)cn2-c1ccc(F)cc1F | 0.9 mg/kg |

tested on: Pseudomonas aeruginosa; assay: In vitro Minimum inhibitory concentration against Pseudomonas aeruginosa 5007; assay type: functional; details: not given

| Structure (SMILES) | MIC |
| --- | --- |
| O=C(O)c1cn(-c2ccc(F)cc2)c2cc(N3CCC[C@H]3CO)c(F)cc2c1=O | > 100 µg/mL |
| NC1CCN(c2nc3c(cc2F)c(=O)c(C(=O)O)cn3-c2ccc(F)cc2F)C1 (centres undefined) [TOSUFLOXACIN] | 0.78 µg/mL (≈ 1.93 µM) |
| C[C@H]1C[C@H](N)CN1c1cc2c(cc1F)c(=O)c(C(=O)O)cn2-c1ccc(F)cc1F | 3.1 µg/mL (≈ 7.43 µM) |

tested on: Pseudomonas aeruginosa; assay: In vitro Minimum inhibitory concentration against Pseudomonas aeruginosa K799/WT; assay type: functional; details: not given

| Structure (SMILES) | MIC |
| --- | --- |
| O=C(O)c1cn(-c2ccc(F)cc2)c2cc(N3CCC[C@H]3CO)c(F)cc2c1=O | > 100 µg/mL |
| NC1CCN(c2nc3c(cc2F)c(=O)c(C(=O)O)cn3-c2ccc(F)cc2F)C1 (centres undefined) [TOSUFLOXACIN] | 0.39 µg/mL (≈ 0.965 µM) |
| C[C@H]1C[C@H](N)CN1c1cc2c(cc1F)c(=O)c(C(=O)O)cn2-c1ccc(F)cc1F | 0.39 µg/mL (≈ 0.934 µM) |

tested on: Staphylococcus epidermidis; assay: In vitro Minimum inhibitory concentration against Staphylococcus epidermidis 3519; assay type: functional; details: not given

| Structure (SMILES) | MIC |
| --- | --- |
| O=C(O)c1cn(-c2ccc(F)cc2)c2cc(N3CCC[C@H]3CO)c(F)cc2c1=O | 3.1 µg/mL (≈ 7.74 µM) |
| NC1CCN(c2nc3c(cc2F)c(=O)c(C(=O)O)cn3-c2ccc(F)cc2F)C1 (centres undefined) [TOSUFLOXACIN] | 0.1 µg/mL (≈ 0.247 µM) |
| C[C@H]1C[C@H](N)CN1c1cc2c(cc1F)c(=O)c(C(=O)O)cn2-c1ccc(F)cc1F | 0.2 µg/mL (≈ 0.479 µM) |

tested on: Streptococcus agalactiae; assay: In vitro Minimum inhibitory concentration against Streptococcus agalactiae CMX 508; assay type: functional; details: not given

| Structure (SMILES) | MIC |
| --- | --- |
| O=C(O)c1cn(-c2ccc(F)cc2)c2cc(N3CCC[C@H]3CO)c(F)cc2c1=O | 100 µg/mL (≈ 250 µM) |
| NC1CCN(c2nc3c(cc2F)c(=O)c(C(=O)O)cn3-c2ccc(F)cc2F)C1 (centres undefined) [TOSUFLOXACIN] | 0.2 µg/mL (≈ 0.495 µM) |
| C[C@H]1C[C@H](N)CN1c1cc2c(cc1F)c(=O)c(C(=O)O)cn2-c1ccc(F)cc1F | 0.1 µg/mL (≈ 0.24 µM) |

tested on: Staphylococcus aureus; assay: In vitro Minimum inhibitory concentration against Staphylococcus aureus 45; assay type: functional; details: not given

| Structure (SMILES) | MIC |
| --- | --- |
| O=C(O)c1cn(-c2ccc(F)cc2)c2cc(N3CCC[C@H]3CO)c(F)cc2c1=O | 3.1 µg/mL (≈ 7.74 µM) |
| NC1CCN(c2nc3c(cc2F)c(=O)c(C(=O)O)cn3-c2ccc(F)cc2F)C1 (centres undefined) [TOSUFLOXACIN] | 0.05 µg/mL (≈ 0.124 µM) |
| C[C@H]1C[C@H](N)CN1c1cc2c(cc1F)c(=O)c(C(=O)O)cn2-c1ccc(F)cc1F | 0.1 µg/mL (≈ 0.24 µM) |

tested on: Staphylococcus aureus; assay: In vitro Minimum inhibitory concentration against Staphylococcus aureus A5177; assay type: functional; details: not given

| Structure (SMILES) | MIC |
| --- | --- |
| O=C(O)c1cn(-c2ccc(F)cc2)c2cc(N3CCC[C@H]3CO)c(F)cc2c1=O | 3.1 µg/mL (≈ 7.74 µM) |
| NC1CCN(c2nc3c(cc2F)c(=O)c(C(=O)O)cn3-c2ccc(F)cc2F)C1 (centres undefined) [TOSUFLOXACIN] | 0.05 µg/mL (≈ 0.124 µM) |
| C[C@H]1C[C@H](N)CN1c1cc2c(cc1F)c(=O)c(C(=O)O)cn2-c1ccc(F)cc1F | 0.2 µg/mL (≈ 0.479 µM) |

tested on: Staphylococcus aureus; assay: In vitro Minimum inhibitory concentration against Staphylococcus aureus ATCC 6538P; assay type: functional; details: not given

| Structure (SMILES) | MIC |
| --- | --- |
| O=C(O)c1cn(-c2ccc(F)cc2)c2cc(N3CCC[C@H]3CO)c(F)cc2c1=O | 3.1 µg/mL (≈ 7.74 µM) |
| NC1CCN(c2nc3c(cc2F)c(=O)c(C(=O)O)cn3-c2ccc(F)cc2F)C1 (centres undefined) [TOSUFLOXACIN] | 0.02 µg/mL (≈ 0.0495 µM) |
| C[C@H]1C[C@H](N)CN1c1cc2c(cc1F)c(=O)c(C(=O)O)cn2-c1ccc(F)cc1F | 0.02 µg/mL (≈ 0.0479 µM) |

tested on: Streptococcus equinus; assay: In vitro Minimum inhibitory concentration against Streptococcus bovis A5169; assay type: functional; details: not given

| Structure (SMILES) | MIC |
| --- | --- |
| O=C(O)c1cn(-c2ccc(F)cc2)c2cc(N3CCC[C@H]3CO)c(F)cc2c1=O | 100 µg/mL (≈ 250 µM) |
| NC1CCN(c2nc3c(cc2F)c(=O)c(C(=O)O)cn3-c2ccc(F)cc2F)C1 (centres undefined) [TOSUFLOXACIN] | 0.78 µg/mL (≈ 1.93 µM) |
| C[C@H]1C[C@H](N)CN1c1cc2c(cc1F)c(=O)c(C(=O)O)cn2-c1ccc(F)cc1F | 0.2 µg/mL (≈ 0.479 µM) |

tested on: Enterococcus faecium; assay: In vitro Minimum inhibitory concentration against Streptococcus faecium ATCC 8043; assay type: functional; details: not given

| Structure (SMILES) | MIC |
| --- | --- |
| O=C(O)c1cn(-c2ccc(F)cc2)c2cc(N3CCC[C@H]3CO)c(F)cc2c1=O | > 100 µg/mL |
| NC1CCN(c2nc3c(cc2F)c(=O)c(C(=O)O)cn3-c2ccc(F)cc2F)C1 (centres undefined) [TOSUFLOXACIN] | 0.2 µg/mL (≈ 0.495 µM) |
| C[C@H]1C[C@H](N)CN1c1cc2c(cc1F)c(=O)c(C(=O)O)cn2-c1ccc(F)cc1F | 0.1 µg/mL (≈ 0.24 µM) |

tested on: Staphylococcus aureus; assay: In vivo efficacy against Staphylococcus aureus 10649, in mouse protection tests when administered perorally (po); assay type: functional; details: not given

| Structure (SMILES) | ED50 |
| --- | --- |
| C[C@H]1C[C@H](N)CN1c1cc2c(cc1F)c(=O)c(C(=O)O)cn2-c1ccc(F)cc1F | 3.3 mg/kg |

tested on: Staphylococcus aureus; assay: In vivo efficacy against Staphylococcus aureus 10649, in mouse protection tests when administered subcutaneously (sc); assay type: functional; details: not given

| Structure (SMILES) | ED50 |
| --- | --- |
| C[C@H]1C[C@H](N)CN1c1cc2c(cc1F)c(=O)c(C(=O)O)cn2-c1ccc(F)cc1F | < 0.5 mg/kg |

tested on: Streptococcus pyogenes; assay: In vitro Minimum inhibitory concentration against Streptococcus pyogenes 930; assay type: functional; details: not given

| Structure (SMILES) | MIC |
| --- | --- |
| O=C(O)c1cn(-c2ccc(F)cc2)c2cc(N3CCC[C@H]3CO)c(F)cc2c1=O | 50 µg/mL (≈ 125 µM) |
| NC1CCN(c2nc3c(cc2F)c(=O)c(C(=O)O)cn3-c2ccc(F)cc2F)C1 (centres undefined) [TOSUFLOXACIN] | 0.1 µg/mL (≈ 0.247 µM) |
| C[C@H]1C[C@H](N)CN1c1cc2c(cc1F)c(=O)c(C(=O)O)cn2-c1ccc(F)cc1F | 0.2 µg/mL (≈ 0.479 µM) |

tested on: not listed separately; assay: Compound was evaluated for the solubility in Ringer's buffer solution; assay type: ADME; details: Ringer's buffer solution; read-out: Solubility

| Structure (SMILES) | solubility |
| --- | --- |
| C[C@H]1C[C@H](N)CN1c1cc2c(cc1F)c(=O)c(C(=O)O)cn2-c1ccc(F)cc1F | 53 µg/mL (≈ 127 µM) |

same assay, conditions: buffer

| Structure (SMILES) | solubility |
| --- | --- |
| NC1CCN(c2nc3c(cc2F)c(=O)c(C(=O)O)cn3-c2ccc(F)cc2F)C1 (centres undefined) [TOSUFLOXACIN] | 8 µg/mL (≈ 19.8 µM) |

tested on: Staphylococcus aureus; assay: In vitro Minimum inhibitory concentration against Staphylococcus aureus CMX 686B; assay type: functional; details: not given

| Structure (SMILES) | MIC |
| --- | --- |
| O=C(O)c1cn(-c2ccc(F)cc2)c2cc(N3CCC[C@H]3CO)c(F)cc2c1=O | 3.1 µg/mL (≈ 7.74 µM) |
| NC1CCN(c2nc3c(cc2F)c(=O)c(C(=O)O)cn3-c2ccc(F)cc2F)C1 (centres undefined) [TOSUFLOXACIN] | 0.05 µg/mL (≈ 0.124 µM) |
| C[C@H]1C[C@H](N)CN1c1cc2c(cc1F)c(=O)c(C(=O)O)cn2-c1ccc(F)cc1F | 0.05 µg/mL (≈ 0.12 µM) |
